{
  "source": "PubChem BioAssay AID1159536",
  "about": "(DiRusso Lab, Biochemistry Department, University of Nebraska, 2015)",
  "note": "Results filed as inconclusive are left out. The source made the active and inactive calls. No rule for the calls is given here.",
  "data": [
    {"tested_on": "Chlamydomonas reinhardtii, Nile Red lipid fluorescence, 72 h", "assay": "compounds raising TAG storage in Chlamydomonas – qHTS, Chlamydomonas reinhardtii, dose response (AID 1159536)", "values": [
      {"smiles": "CC1CCN(S(=O)(=O)c2ccc(NC(=O)c3cccc([N+](=O)[O-])c3)cc2)CC1", "EC50": "2.7 µM"},
      {"smiles": "Clc1ccc(OCCCCN2CCOCC2)c(Br)c1", "EC50": "0.854 µM"},
      {"smiles": "O=[N+]([O-])c1ccc(CNC2CCCCCC2)cc1", "EC50": "1.88 µM"},
      {"smiles": "CCS(=O)(=O)N1CCN(C2CCCCCCC2)CC1", "EC50": "5.99 µM"},
      {"smiles": "C=CCn1c(SCC(=O)O)nnc1-c1ccc([N+](=O)[O-])cc1", "EC50": "13.6 µM (inactive)"},
      {"smiles": "O=[N+]([O-])c1ccc(CNC2CCCC2)cc1", "EC50": "0.645 µM"},
      {"smiles": "OC(COc1ccc(Cl)cc1Cl)CN1CCN(Cc2ccccc2)CC1", "note": "(centres undefined)", "EC50": "7.67 µM"},
      {"smiles": "C=C(C)CN(CC)C(=O)C1CCN(CC2CC=CCC2)CC1", "note": "(centres undefined)", "EC50": "2.73 µM"},
      {"smiles": "C=CCn1c(SCC(=O)NCCc2ccccc2)nnc1-c1ccc(Cl)cc1Cl", "EC50": "4.05 µM"},
      {"smiles": "O=C(Nc1cccnc1)c1ccc(S(=O)(=O)c2ccc(Cl)cc2)cc1", "EC50": "6.72 µM (inactive)"},
      {"smiles": "Cc1ccc2nc(NC(=O)C3CC3)sc2c1", "EC50": "15.1 µM (inactive)"},
      {"smiles": "COc1ccc(CN2CCN(Cc3ccccc3)CC2)c(OC)c1OC", "EC50": "11.6 µM"},
      {"smiles": "Cc1ccc(OCCCN2CCOCC2)c(C)c1", "EC50": "10.3 µM"},
      {"smiles": "C(#CC12CC3CC(CC(C3)C1)C2)CN1CCOCC1", "EC50": "3.27 µM"},
      {"smiles": "Cc1ccc(OCCCCN2CCCCC2)c(C)c1", "EC50": "11.3 µM"},
      {"smiles": "Cc1cccc(-c2noc(COc3ccc(Br)cc3)n2)c1", "EC50": "9.11 µM (inactive)"},
      {"smiles": "O=C(O)C1C2C=CC(O2)C1C(=O)Nc1ccccc1F", "note": "(centres undefined)", "EC50": "14.8 µM (inactive)"},
      {"smiles": "COc1ccc(CN2CCN(c3ncnc4sc5c(c34)CCCC5)CC2)cc1", "EC50": "4.83 µM"},
      {"smiles": "CN(C)c1ccc(NC(=O)Nc2ccc3nc(-c4ccccn4)c(-c4ccccn4)nc3c2)cc1", "EC50": "1.33 µM"},
      {"smiles": "O=[N+]([O-])c1ccc(CN2CCN(Cc3ccccc3F)CC2)cc1", "EC50": "8.4 µM"},
      {"smiles": "COc1ccc(NC(=O)CCC2CCCCC2)c([N+](=O)[O-])c1", "EC50": "6.82 µM"},
      {"smiles": "CN(Cc1ccc([N+](=O)[O-])cc1)C1CCCCC1", "EC50": "0.0878 µM"},
      {"smiles": "O=[N+]([O-])c1ccccc1CN1CCN(CC2CC3C=CC2C3)CC1", "note": "(centres undefined)", "EC50": "11.7 µM (inactive)"},
      {"smiles": "O=[N+]([O-])c1ccc(CN2CCN(c3ccccc3)CC2)cc1", "EC50": "0.175 µM"},
      {"smiles": "COc1ccccc1N1CCN(Cc2ccc(C)cc2)CC1", "EC50": "3.65 µM"},
      {"smiles": "C/C=C(\\C)CN1CCN(c2ccc(C)cc2)CC1", "EC50": "4.18 µM"},
      {"smiles": "O=[N+]([O-])c1ccc(CN2CCN(C3CC4CCC3C4)CC2)cc1", "note": "(centres undefined)", "EC50": "2.53 µM"},
      {"smiles": "Cc1cc(OCC(O)CN2CCN(CCO)CC2)ccc1C(C)C", "note": "(centres undefined)", "EC50": "0.81 µM"},
      {"smiles": "Cc1ccc(C(=O)Nc2ccc(Cl)cc2C)cc1C", "EC50": "16.6 µM (inactive)"},
      {"smiles": "CCc1cccc(OCC(=O)Nc2cc(OC)c(OC)cc2C(=O)O)c1", "EC50": "1.38 µM"},
      {"smiles": "Clc1ccc(Cl)c(OCCCCN2CCNCC2)c1", "EC50": "5.34 µM"},
      {"smiles": "CC1CN(CC(O)COc2ccc(C(C)(C)C)cc2)CC(C)O1", "note": "(centres undefined)", "EC50": "9.95 µM"},
      {"smiles": "c1ccc(CN2CCN(C3CCCCC3)CC2)cc1", "EC50": "9.9 µM"},
      {"smiles": "Cc1ccccc1N1CCN(Cc2ccc(O)cc2)CC1", "EC50": "10 µM"},
      {"smiles": "CCSc1ccc(C(=O)Nc2ccc(Cc3ccncc3)cc2)cc1[N+](=O)[O-]", "EC50": "2.64 µM"},
      {"smiles": "Cc1ccc(C(C)C)cc1OCCOCCN1CCOCC1", "EC50": "2.18 µM"},
      {"smiles": "Fc1ccc(N2CCN(Cc3ccccc3)CC2)cc1", "EC50": "1.37 µM"},
      {"smiles": "Cc1ccc(C(=O)Nc2ccccc2C(=O)NC(C)C)cc1[N+](=O)[O-]", "EC50": "0.635 µM (inactive)"},
      {"smiles": "CN1CC=C(CNc2cccc3c2CCCC3)CC1", "EC50": "2.58 µM"},
      {"smiles": "C=CCc1ccccc1OCC(O)CN(C)C1CCCCC1", "note": "(centres undefined)", "EC50": "4.88 µM"},
      {"smiles": "O=C(c1ccccc1)c1ccc(OCCCCn2ccnc2)cc1", "EC50": "1.33 µM (inactive)"},
      {"smiles": "O=C(C1COc2ccccc2O1)N1CCN(Cc2ccccc2)CC1", "note": "(centres undefined)", "EC50": "10.6 µM"},
      {"smiles": "Cc1ccc(C)c(N2CCN(C3CCCCCC3)CC2)c1", "EC50": "10 µM"},
      {"smiles": "Fc1ccc(CN2CCN(c3ccccc3Cl)CC2)cc1", "EC50": "1.4 µM"},
      {"smiles": "COc1ccc(CN(C)C2CCCCC2)c(C)c1C", "EC50": "0.608 µM"},
      {"smiles": "O=C(NCCc1ccc(Cl)cc1)C(=O)Nc1nccs1", "EC50": "10.2 µM (inactive)"},
      {"smiles": "Clc1ccccc1OCCCCN1CCOCC1", "EC50": "5.38 µM"},
      {"smiles": "O=C(CN1CCCCC1)Nc1ncc(Cc2ccc(Br)cc2)s1", "EC50": "1.27 µM (inactive)"},
      {"smiles": "c1ccc(CCc2nc(-c3ccncc3)no2)cc1", "EC50": "5.02 µM"},
      {"smiles": "Oc1ccc(Br)cc1CN1CCN(CC2CC3C=CC2C3)CC1", "note": "(centres undefined)", "EC50": "9.95 µM"},
      {"smiles": "O=C1C2C3CCC(C3)C2C(=O)N1c1nccs1", "note": "(centres undefined)", "EC50": "13.5 µM (inactive)"},
      {"smiles": "Oc1ccc(Cl)cc1CN1CCN(Cc2ccccc2)CC1", "EC50": "3.56 µM"},
      {"smiles": "Clc1ccc(OCCOCCN2CCOCC2)c(Br)c1", "EC50": "7.9 µM"},
      {"smiles": "CCc1ccc(CN2CCN(CC)CC2)cc1", "EC50": "4.68 µM"},
      {"smiles": "Cc1ccc(C)c(N2CCN(C3CCc4ccccc4C3)CC2)c1", "note": "(centres undefined)", "EC50": "16.7 µM"},
      {"smiles": "CC(C)NCC(=O)NC12CC3CC(CC(C3)C1)C2", "EC50": "0.638 µM"},
      {"smiles": "C1=CC2CC1CC2CN1CCN(Cc2ccco2)CC1", "note": "(centres undefined)", "EC50": "2.52 µM"},
      {"smiles": "c1cc2c(cc1CNC1CCCC1)OCO2", "EC50": "10.7 µM"},
      {"smiles": "Cc1c(NC(=O)c2c(F)c(F)c(F)c(F)c2F)c(=O)n(-c2ccccc2)n1C", "EC50": "19 µM (inactive)"},
      {"smiles": "CN1CCN(CCCOc2cc(Cl)ccc2Cl)CC1", "EC50": "14.1 µM"},
      {"smiles": "c1ccc(N2CCN(CC3CCCCC3)CC2)cc1", "EC50": "1.03 µM"},
      {"smiles": "COc1ccccc1NC(=O)N1CCN(c2ccccn2)CC1", "EC50": "4.11 µM"},
      {"smiles": "O=C1CC(N2CCc3ccccc3C2)C(=O)N1c1ccc([N+](=O)[O-])cc1", "note": "(centres undefined)", "EC50": "15.7 µM (inactive)"},
      {"smiles": "Cc1ccc(N2CCN(C3CCCCCC3)CC2)cc1", "EC50": "0.649 µM"},
      {"smiles": "CCc1ccc(CN2CCN(c3ccccc3C)CC2)cc1", "EC50": "1.33 µM (inactive)"},
      {"smiles": "CC(=O)N(C1=C(Nc2ccccc2)C(=O)c2ccccc2C1=O)c1ccccc1", "EC50": "15.2 µM (inactive)"},
      {"smiles": "COc1ccc(C(=O)NCCN2CCOCC2)cc1[N+](=O)[O-]", "EC50": "5.99 µM (inactive)"},
      {"smiles": "OC(CNCCc1ccccc1)c1ccccc1", "note": "(centres undefined)", "EC50": "6.91 µM"},
      {"smiles": "CSc1ccc(CN2CCSCC2)cc1", "EC50": "10.5 µM (inactive)"},
      {"smiles": "O=C(O)CCSCC(=O)c1ccc(NS(=O)(=O)c2ccccc2)cc1", "EC50": "30.6 µM (inactive)"},
      {"smiles": "CC(C)(C)C1CCC(NCc2ccncc2)CC1", "note": "(centres undefined)", "EC50": "3.53 µM"},
      {"smiles": "COc1cccc(N2CCN(CC3CC4C=CC3C4)CC2)c1", "note": "(centres undefined)", "EC50": "1.26 µM"},
      {"smiles": "CN1CCCN(Cc2cccc(Oc3ccccc3)c2)CC1", "EC50": "10.1 µM"},
      {"smiles": "CCc1ccc(CN2CCC(C(=O)N(CC)Cc3ccccc3)CC2)cc1", "EC50": "0.708 µM"},
      {"smiles": "N#Cc1c(-n2ncnc2-c2cccnc2)sc2c1CCCCC2", "EC50": "2.47 µM (inactive)"},
      {"smiles": "Cc1ccc(OCCOCCN2CCOCC2)c([N+](=O)[O-])c1", "EC50": "2.7 µM"},
      {"smiles": "O=C1CC(N2CCC(C(O)(c3ccccc3)c3ccccc3)CC2)C(=O)N1c1ccc(F)cc1", "note": "(centres undefined)", "EC50": "13.6 µM (inactive)"},
      {"smiles": "COc1ccccc1C(=O)N1CCN(C(=O)C(c2ccccc2)c2ccccc2)CC1", "EC50": "5.62 µM (inactive)"},
      {"smiles": "COc1cccc(N2CCN(C3CCCC(C)C3)CC2)c1", "note": "(centres undefined)", "EC50": "6.34 µM"},
      {"smiles": "CN1CCN(CCCOc2ccc(Br)cc2)CC1", "EC50": "9.74 µM"},
      {"smiles": "O=[N+]([O-])c1cccc(CNC2CCCCCC2)c1", "EC50": "1.1 µM"},
      {"smiles": "Clc1ccc(N2CCN(Cc3ccsc3)CC2)cc1", "EC50": "1.27 µM"},
      {"smiles": "COc1ccc(CNCc2ccc(C)cc2)c(OC)c1", "EC50": "9.94 µM (inactive)"},
      {"smiles": "Cc1ccc(NC(=O)CSc2nnc(-c3ccc(Cl)cc3Cl)n2N)c(C)c1", "EC50": "2.46 µM (inactive)"},
      {"smiles": "Cc1cc(C=O)c(C)n1-c1ccc(Br)cc1F", "EC50": "12 µM (inactive)"},
      {"smiles": "CN1CCN(Cc2ccc(-c3ccccc3Cl)o2)CC1", "EC50": "3.34 µM"},
      {"smiles": "CC(C)(Oc1ccc(Cl)cc1)C(=O)Nc1ccc(Br)cc1F", "EC50": "1.81 µM (inactive)"},
      {"smiles": "COc1ccc(CN2CCN(C/C=C/c3ccccc3)CC2)cc1", "EC50": "6.56 µM"},
      {"smiles": "Cc1cc(Br)ccc1OCCOCCN1CCOCC1", "EC50": "7.81 µM"}
    ]}
  ]
}
